In publication PMC11891579, “Fluorescent PyrAte-(S)-citalopram conjugates enable imaging of the serotonin transporter in living tissue” (Chemical Science, 2025):

Experiments:
YhDAT = target: T1, YhDAT (Homo sapiens, UniProt Q01959); test: radioligand uptake inhibition assay ([3H]DA); format: cell-based; conditions: for IC50: HEK293 stably expressing YhDAT, 100 nM [3H]DA, mean and SD, N = 3-6, read-out: IC50, uptake inhibition at DAT (YhDAT); for Hill coefficient nH at DAT: uptake inhibition curve
T1 construct: expressed in transfected cells
T1 sequence (Q01959 whole entry): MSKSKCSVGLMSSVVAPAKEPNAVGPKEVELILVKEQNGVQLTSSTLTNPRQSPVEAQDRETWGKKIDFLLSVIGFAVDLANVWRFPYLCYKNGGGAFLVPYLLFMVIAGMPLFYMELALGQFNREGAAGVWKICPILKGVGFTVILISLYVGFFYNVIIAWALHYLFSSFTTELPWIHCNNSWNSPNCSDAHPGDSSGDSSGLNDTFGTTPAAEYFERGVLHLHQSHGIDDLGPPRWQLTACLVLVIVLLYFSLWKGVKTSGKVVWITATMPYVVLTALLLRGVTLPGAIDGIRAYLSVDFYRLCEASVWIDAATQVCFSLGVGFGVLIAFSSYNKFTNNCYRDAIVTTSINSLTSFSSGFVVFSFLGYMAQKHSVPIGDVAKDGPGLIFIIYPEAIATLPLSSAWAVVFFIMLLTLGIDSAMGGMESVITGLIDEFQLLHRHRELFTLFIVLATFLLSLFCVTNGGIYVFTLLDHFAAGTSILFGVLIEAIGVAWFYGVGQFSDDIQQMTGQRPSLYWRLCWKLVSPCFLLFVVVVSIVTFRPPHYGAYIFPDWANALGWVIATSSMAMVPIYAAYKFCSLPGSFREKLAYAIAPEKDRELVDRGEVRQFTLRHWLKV
Experimental: 1. Biological characterization
1.1. Experimental methods
Buffer and solution compositions (in mM) are as follows:
Krebs-HEPES buffer (KHB): 120 NaCl, 3 KCl, 2 CaCl2, 2 MgCl2, 20 glucose, 10 HEPES NaOH, pH = 7.3 – 7.4. […]
10 mM glucose, 1.25 mM NaH2PO4, pH = 7.4 (oxygenated with 95% O2, 5% CO2).
Human embryonic kidney 293 cells (HEK293) stably expressing the mCherry-tagged, YFP-tagged, and GFP-tagged human isoforms of SERT (mCherry-SERT, YhSERT, GhSERT), DAT (YhDAT), NET (hNET), and OCT3 (YhOCT3) were cultured in Dulbecco's modified Eagle's medium (DMEM) with high glucose (4.5 g/L) and l-glutamine (584 mg/L), supplemented with 10% fetal calf serum (FCS), 100 units/mL penicillin and 100 µg/mL streptomycin. The cells were cultured in a humidified atmosphere (37 °C, 5% CO2). Geneticin (50 µg/mL), Blasticidin (6 µg/mL), and Zeocin® (150 µg/mL) were added to maintain the selection pressure for the stable cell lines. Cells were typically seeded 24 hours prior to the experiments.
For uptake inhibition experiments, cells were seeded at 3.6 x 10^4 cells/0.2 mL into 96-well plates coated […]
with poly-d-lysine (PDL). […]
For uptake inhibition experiments, the cell medium was aspirated and the cells were washed once with 0.2 mL/well KHB at room temperature. The cells were pre-incubated with increasing concentrations of the substance of interest, diluted in KHB (0.05 mL/well). The pre-incubation solution was replaced with 0.05 mL/well KHB solution still containing the substance of interest and additionally the tritiated substrate (100 nM [3H]DA for YhDAT; 100 nM [3H]5HT for YhSERT; 20 nM and 50 nM [3H]MPP+ for hNET and YhOCT3), after 6 minutes (YhSERT), 5 minutes (YhDAT, hNET), or 10 minutes (YhOCT3). Substrate uptake was stopped after one minute (for [3H]DA and [3H]5HT), three minutes, or […]
The KHB was aspirated immediately. […] Non-specific uptake was determined in the presence of 30 µM paroxetine (for YhSERT), 50 µM GBR12909 (for YhDAT and hNET), or 100 µM decynium-22 (for YhOCT3). […]
[3H]-imipramine, and increasing concentrations of test compound, for 60 min at 20 – 22 °C. […] The amount of radioactivity in the filters was measured using a Tri-Carb 2800TR liquid scintillation analyzer (PerkinElmer). The Ki was calculated from the measured IC50 using the Cheng-Prusoff equation.
Prior to imaging, cell culture medium was replaced with pre-warmed KHB. […] PyrAtes were excited using a 405 nm laser, and its fluorescent signals collected using 525/50 nm emission filters; mCherry was excited using a 561 nm laser, and fluorescence was collected using 595/50 nm emission filters. […]
5HT-mediated currents were measured at room temperature (20-25°C) using whole-cell patch clamp in HEK293 cells stably expressing SERT. […]

[1] = photophysical properties in aqueous media; format: physicochemical; conditions: PBS:DMSO 99:1 v/v; for Quantum yield: C153 as internal standard
Text: Table S5. Photophysical properties of PyrAte-(S)-citalopram conjugates in aqueous media (PBS:DMSO
99:1 v/v). C153 (coumarin 153) was used as internal standard for the measurement of quantum yield.
Compound λmax (nm) λEm (nm) Stokes shift ε at λmax Quantum Brightness (at λmax,
(nm) (M-1 cm-1) yield 103 M-1 cm-1)

SMILES | IC50 (YhDAT) [nM] | Hill coefficient nH at DAT (YhDAT) | Brightness (at λmax) [1] | Stokes shift [1] [nm] | ε at λmax [1] [M⁻¹ cm⁻¹] | λEm [1] [nm] | λmax [1] [nm] | Quantum yield [1]
CCN(CC)c1ccc(-c2cc[n+]3c(-c4ccccc4)c(N4CCCC4)n(CCCC(=O)NCc4ccc5c(c4)CO[C@@]5(CCCN(C)C)c4ccc(F)cc4)c3c2)cc1 [PYR-C3-CIT, PyrAte-C3-(S)-citalopram] | 3570 | −1.3 | 24.0 103 M-1 cm-1 | 88 | 30000 | 493 | 405 | 0.82
CCN(CC)c1ccc(-c2cc[n+]3c(-c4ccccc4)c(N4CCCC4)n(CCCCCCC(=O)NCc4ccc5c(c4)CO[C@@]5(CCCN(C)C)c4ccc(F)cc4)c3c2)cc1 [PYR-C6-CIT, PyrAte-C6-(S)-citalopram] | 2050 | −1.5 | 27.0 103 M-1 cm-1 | 87 | 39600 | 493 | 406 | 0.69
